Reference: US3979511A, “Inhibitors of reverse transcriptase enzymes” (Abbott Laboratories, priority 1974, dated 1976)

Assays:
[1] = target: T1, reverse transcriptase of Rous sarcoma virus (Rous sarcoma virus - Prague C, UniProt P03354); assay: Inhibition of reverse transcriptase activity in RSV particles (3H-thymidine triphosphate incorporation); type: biochemical; conditions: for inhibition at 400 µg/mL: 400 μg/ml., read-out: Percent Inhibition
T1 construct: alpha/beta heterodimer cut from Gag-Pol polyprotein; 3H-TTP incorporation
T1 sequence (P03354 709-1567): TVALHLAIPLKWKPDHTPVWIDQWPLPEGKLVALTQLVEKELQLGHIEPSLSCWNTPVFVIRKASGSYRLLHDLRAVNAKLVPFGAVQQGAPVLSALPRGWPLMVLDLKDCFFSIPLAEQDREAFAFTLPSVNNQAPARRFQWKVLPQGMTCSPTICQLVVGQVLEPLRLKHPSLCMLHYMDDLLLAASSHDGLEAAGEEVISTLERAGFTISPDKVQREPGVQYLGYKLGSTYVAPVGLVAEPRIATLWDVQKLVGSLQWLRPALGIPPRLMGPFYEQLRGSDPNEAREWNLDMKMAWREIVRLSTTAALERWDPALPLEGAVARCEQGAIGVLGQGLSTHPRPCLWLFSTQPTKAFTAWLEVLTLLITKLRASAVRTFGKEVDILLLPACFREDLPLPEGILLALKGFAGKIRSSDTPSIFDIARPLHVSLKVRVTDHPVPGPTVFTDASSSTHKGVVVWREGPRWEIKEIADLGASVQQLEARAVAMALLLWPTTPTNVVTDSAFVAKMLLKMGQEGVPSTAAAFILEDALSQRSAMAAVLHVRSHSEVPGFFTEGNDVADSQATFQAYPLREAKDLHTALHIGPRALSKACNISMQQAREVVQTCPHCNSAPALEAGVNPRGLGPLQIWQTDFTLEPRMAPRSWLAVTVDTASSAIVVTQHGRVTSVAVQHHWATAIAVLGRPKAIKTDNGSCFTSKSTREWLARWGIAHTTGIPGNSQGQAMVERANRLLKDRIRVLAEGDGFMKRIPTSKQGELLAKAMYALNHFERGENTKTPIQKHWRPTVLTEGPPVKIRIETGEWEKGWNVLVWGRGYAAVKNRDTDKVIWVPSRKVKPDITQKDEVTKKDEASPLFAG
Procedure: Inhibition was directly related to drug concentration. […] Reverse transcriptase activities were measured from the incorporation of ^3 H-thymidine triphosphate into trichloroacetic acid insoluble counts according to a published method (Nature, 227, 563 (1970). The drug was dissolved in dimethylsulfoxide at a concentration of 10 mg./ml. ##SPC3##
Degrees of the inhibition are listed below in Table 1.

[2] = system: Rous sarcoma virus; assay: Mortality of chicks infected intra-abdominally with Rous sarcoma virus; type: in vivo, chickens; conditions: for Probability (Fisher's exact probability for proportions): Virus + Drug I vs Virus; for Alive / Dead: Virus + Drug I, 200 mg./kg. by gavage every other day, 25 birds per group
Text: (§1) To test the effectiveness of the present compounds, 12-day-old Cofal negative chicks were used. The chicks were purchased from SPAFA as 8-day-old embryonated eggs for the tests and comparison of the effectiveness of the inhibitors of the present invention. The chicks were divided into four groups of 25 birds per group:
(§2) Group 1 - Drug I control (9-0-methyloximinyl erythromycin A;
Group 2 - Drug I + Rous sarcoma virus (RSV);
Group 3 - Rous sarcoma virus (infection control);
Group 4 - Normal control (sham media)
(§3) The medication with the virus and drug combinations was started by gavage two days before the chicks were infected with the virus. The chickens treated with Drug I, 9-0-methyloximinyl erythromycin A, received 200 mg./kg. every other day for the entire 35 days of the experiment. Each week the chickens were weighed and the drug level was adjusted to accommodate the new weight.
On the third day the chickens in Groups 2 and 3 were infected intra-abdominally with Rous sarcoma virus (RSV). The inoculum received by each bird was 0.2 ml. and contained approximately 100,000 viral particles. Group 4 received a sham inoculation of 0.2 ml. of sterile tissue culture media.
(§4) The chickens were observed daily for the 35 days that the experiment was allowed to continue.
(§5) On the last day, the 35th day, all surviving chickens were sacrificed, weighed and autopsied.
The results of the experiment are provided in Table 3 which provides the following results: "Statistical Evaluation of Mortality of the Chickens".

[3] = Drug control group: mortality of uninfected chicks given drug; type: in vivo, chickens; conditions: Drug I control, 200 mg./kg. by gavage every other day, 25 birds
Text: as §1, §2, §3, §4, §5

[4] = system: Rous sarcoma virus; assay: Blocking of transformation (focus formation) of chick embryonic fibroblasts by Rous sarcoma virus in tissue culture; type: cell-based
Procedure: In tissue culture, the effect of 9-0-methyloximinyl erythromycin A on the blocking of transformation of chick embryonic fibroblasts by Rous sarcoma virus is shown in Table 2. […] The assay was carried out according to a published method (J. Gen. Virol. I, 85 (1970).

[5] = period 4 after infection (period = 6 days)
[6] = period 5 after infection (period = 6 days)
[7] = period 6 after infection (period = 6 days)

CC[C@H]1OC(=O)[C@H](C)[C@@H](O[C@H]2C[C@@](C)(OC)[C@@H](O)[C@H](C)O2)[C@H](C)[C@@H](O[C@@H]2O[C@H](C)C[C@H](N(C)C)[C@H]2O)[C@](C)(O)C[C@@H](C)C(=NOCc2ccc(Cl)c(Cl)c2)[C@H](C)[C@@H](O)[C@H]1C [9-O-(3,4-dichlorobenzyloximinyl) erythromycin B]
inhibition at 400 µg/mL [1]: 69%

CCON=C1[C@H](C)C[C@@](C)(O)[C@H](O[C@@H]2O[C@H](C)C[C@H](N(C)C)[C@H]2O)[C@@H](C)[C@H](O[C@H]2C[C@@](C)(OC)[C@@H](O)[C@H](C)O2)[C@@H](C)C(=O)O[C@H](CC)[C@@](C)(O)[C@H](O)[C@H]1C [9-O-ethyloximinyl erythromycin A]
inhibition at 400 µg/mL [1]: 52%

CC[C@H]1OC(=O)[C@H](C)[C@@H](O[C@H]2C[C@@](C)(OC)[C@@H](O)[C@H](C)O2)[C@H](C)[C@@H](O[C@@H]2O[C@H](C)C[C@H](N(C)C)[C@H]2O)[C@](C)(O)C[C@@H](C)C(=NOC)[C@H](C)[C@@H](O)[C@]1(C)O [9-O-methyloximinyl erythromycin A]
inhibition at 400 µg/mL [1]: 57%
IC50 ([1]; RSV particles, drug dissolved in dimethylsulfoxide, read-out: Fifty percent inhibition of reverse transcriptase activity (converted)): ~459 µM
tumors in survivors at sacrifice and autopsy ([2]; RSV-infected birds that received Drug I 200 mg./kg. every other day, 35th day): had tumors in evidence
Probability (Fisher's exact probability for proportions) ([2]; period 4 after infection): .02
Probability (Fisher's exact probability for proportions) ([2]; period 5 after infection): .006
Probability (Fisher's exact probability for proportions) ([2]; period 6 after infection): .036
Alive [2, 5]: 18
Dead [2, 5]: 7
Alive [2, 6]: 13
Dead [2, 6]: 12
Alive [2, 7]: 8
Dead [2, 7]: 17
Alive ([3]; period 4 (period = 6 days)): 25
Dead ([3]; period 4 (period = 6 days)): 0
Alive ([3]; period 5 (period = 6 days)): 25
Dead ([3]; period 5 (period = 6 days)): 0
Alive ([3]; period 6 (period = 6 days)): 25
Dead ([3]; period 6 (period = 6 days)): 0
inhibition at 1 µg/mL ([4]; Rous sarcoma virus, Fibroblast, Drug Concentration 1 μg/ml): 39%
inhibition at 5 µg/mL ([4]; Rous sarcoma virus, Fibroblast, Drug Concentration 5 μg/ml): 53%
inhibition at 10 µg/mL ([4]; Rous sarcoma virus, Fibroblast, Drug Concentration 10 μg/ml): 95%
inhibition of focus formation ([4]; drug levels of 5-10 μg/ml): at least 50%

CCCON=C1[C@H](C)C[C@@](C)(O)[C@H](O[C@@H]2O[C@H](C)C[C@H](N(C)C)[C@H]2O)[C@@H](C)[C@H](O[C@H]2C[C@@](C)(OC)[C@@H](O)[C@H](C)O2)[C@@H](C)C(=O)O[C@H](CC)[C@@](C)(O)[C@H](O)[C@H]1C [9-O-propyloximinyl erythromycin A]
inhibition at 400 µg/mL [1]: 47%
